Entries after “also recorded” stand apart in the source; their conditions may differ.
Legend:
[1] = Phase II, interim results; cited from earlier work
[2] = system: HL-60 cells; conditions: background statement; cited from earlier work
[3] = system: HL-60 cells; assay: Enhancement of differentiation of HL-60 cells (CD11b surface expression, flow cytometry); format: cell-based, human; conditions: diethyl esters, 24 hours
Description: Some of the diethyl ester compounds of this invention were also tested for their ability to enhance the differentiation of HL-60 cells. This illustrates the beneficial effect of the compounds of this invention in stimulating differentiation of the HL-60 human leukemia cell line in vitro. […] The cells were harvested by centrifugation (1250 rpm for 5 min at 20° C.) and washed with 2 mL ice-cold phosphate-buffered saline (PBS) containing 2% FBS, then stained with 10 μL phycoerythrin-conjugated anti-CD11b antibody or 10 μL phycoerythrin-conjugated isotype control antibody. After standing for 30 min on ice, the cells were re-suspended in 2 mL ice-cold PBS containing 2% FBS. The cells were harvested by centrifugation (1250 rpm for 5 min at 20° C.) and resuspended in 0.4 mL PBS containing 2% FBS. The specific cell surface expression of CD11b, a marker for granulocytes and monocytes, was detected by flow cytometry using a FACSCalibur analyzer (BD Biosciences). All assays were conducted in triplicate, with DMSO control. The extent of differentiation was expressed as a multiple of the signal from the DMSO control.

[4] = both in vitro and in vivo; cited from earlier work
[5] = molecular target: T1, Recombinant human GST A1-1 (Homo sapiens, UniProt P08263); assay: Inhibition of glutathione S-transferase isoenzyme GST A1-1 (CDNB/GSH, absorbance at 340 nm); format: biochemical; conditions: diacids (row number n = compound nA), pH 6.5, 2% DMSO
T1 construct: purchased EMD Biosciences, Inc., San Diego, Calif., U.S.A
T1 sequence (P08263 1-222): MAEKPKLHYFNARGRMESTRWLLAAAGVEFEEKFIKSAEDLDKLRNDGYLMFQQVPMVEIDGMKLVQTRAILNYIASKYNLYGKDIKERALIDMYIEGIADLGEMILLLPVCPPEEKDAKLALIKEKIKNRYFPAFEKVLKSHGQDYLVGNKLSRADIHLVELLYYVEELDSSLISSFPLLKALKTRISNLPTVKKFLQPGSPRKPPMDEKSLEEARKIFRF
Description: (§1) In vitro Example 1. Inhibition of glutathione S-transferase isoenzymes. […] For each assay, the test compound and GSH were added to the isoenzyme. Immediately after the addition of CDNB solution to the isoenzyme/compound/GSH solution, the absorbance at 340 nm was recorded continuously for 5 min on a SpectraMax plate reader (Molecular Devices, Inc., Sunnyvale, Calif., U.S.A.). The GST inhibitory activity of each compound was calculated from the slopes of the absorbance/time curves at the various concentrations of test compound. All assays were conducted in duplicate wells, with DMSO control, with the final DMSO concentration maintained at 2%.

[6] = molecular target: T2, Recombinant human GST M1-1 (Homo sapiens, UniProt P09488); assay: Inhibition of glutathione S-transferase isoenzyme GST M1-1 (CDNB/GSH, absorbance at 340 nm); format: biochemical; conditions: diacids (row number n = compound nA), pH 6.5, 2% DMSO
T2 construct: purchased EMD Biosciences, Inc., San Diego, Calif., U.S.A
T2 sequence (P09488 2-218 limits assumed): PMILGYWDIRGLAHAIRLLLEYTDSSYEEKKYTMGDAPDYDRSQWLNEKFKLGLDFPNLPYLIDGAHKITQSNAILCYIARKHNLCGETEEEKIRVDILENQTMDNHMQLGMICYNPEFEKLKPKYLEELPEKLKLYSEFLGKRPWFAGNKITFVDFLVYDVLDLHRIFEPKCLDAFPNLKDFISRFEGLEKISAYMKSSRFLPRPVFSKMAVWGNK
Description: as §1

[7] = molecular target: T3, Recombinant human GST P1-1 (Homo sapiens, UniProt P09211); assay: Inhibition of glutathione S-transferase isoenzyme GST P1-1 (CDNB/GSH, absorbance at 340 nm); format: biochemical; conditions: diacids (row number n = compound nA), pH 6.5, 2% DMSO
T3 construct: purchased EMD Biosciences, Inc., San Diego, Calif., U.S.A
T3 sequence (P09211 2-210 limits assumed): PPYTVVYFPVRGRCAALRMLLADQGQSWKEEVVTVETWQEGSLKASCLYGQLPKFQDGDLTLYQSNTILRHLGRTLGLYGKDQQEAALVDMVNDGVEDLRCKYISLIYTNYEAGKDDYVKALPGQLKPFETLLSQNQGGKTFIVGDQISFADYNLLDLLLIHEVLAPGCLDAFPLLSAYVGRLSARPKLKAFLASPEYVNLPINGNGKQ
Description: as §1

IC50 [5] [µM]	IC50 [6] [µM]	IC50 [7] [µM]	Structure (SMILES)	Hematologic response in humans [1]	Tolerability in MDS patients [1]	Differentiation of HL-60 promyelocytic leukemia cells in vitro [2]	Differentiation of HL-60 cells (CD11b expression as multiple of DMSO control) [3]	Potentiation of the activity of cytotoxic agents [4]
			CCOC(=O)[C@@H](N)CCC(=O)N[C@@H](CSCc1ccccc1)C(=O)N[C@@H](C(=O)OCC)c1ccccc1 [TLK199]	myelostimulant activity in humans; also recorded: multilineage hematologic improvement	well tolerated	induce the differentiation of HL-60 promyelocytic leukemia cells	enhances differentiation	chemopotentiation activity in an animal model
52	100	3.2	N[C@@H](CCC(=O)N[C@@H](CS(=O)(=O)Cc1ccc([N+](=O)[O-])o1)C(=O)N[C@@H](C(=O)O)c1ccccc1)C(=O)O [Compound 14A, L-γ-glutamyl-3-[(5-nitrofuran-2-ylmethyl)sulfonyl]-L-alanyl-D-phenylglycine]					
